Measured values reported in patent publication US9750724B2, “Use of an aromatase inhibitor for the treatment of hypogonadism and related diseases” (Mereo BioPharma 2 Limited, priority 2011, dated 2017).
Where two headings read alike, the source gives them in different places.

Tests used:
[1] = Human ADME study, single oral dose of 1 mg 14C-CGP47645 in healthy postmenopausal women; format: in vivo
Description: The study was a single dose, single group, open label ADME study of 8 healthy postmenopausal women. […] The study design consisted of a 28-day screening period, one baseline visit (Day −1), a domiciled period beginning from admission on Day −1 through discharge on Day 7, 2 outpatient visits for PK blood collection on Days 14 (±1) and 21 (±1), 2 subject specific adipose tissue collection visits, and an end-of-study 6 month safety follow-up visit.
The primary goal of this study was to assess the partitioning of CGP47645 into abdominal adipose tissue as a measure of peripheral tissue targeting and to assess whether there may be a longer T½ metabolite, as well as to elucidate the metabolic profile, obtain information on routes of excretion and mass balance. Adipose tissue samples were collected in a sparse sampling protocol, where each subject underwent two collections of adipose tissue, with each subject biopsied at different times.

[2] = system: estrone, estrone sulfate and estradiol; assay: Single ascending dose study in women, pharmacodynamics (estrogen suppression); format: in vivo, human
Experimental: (§1) Patients received either 0.1 mg, 1 mg, and 10 mg drug substance containing hard gelatin capsules or appropriate matching placebo capsules.
(§2) A minimal toxic dose (MTD) was not reached. […] Table 3 presents the PK parameters based on preliminary analysis of the concentration-time profile obtained from this study.

[3] = biological target: T1, aromatase (Rattus norvegicus, UniProt P22443); settings: once weekly administration, adult female rats; Batzl-Hartmann et al, 1994; cited from earlier work
T1 construct: host or cells: adult female rats (whole animal, endogenous enzyme)
T1 sequence (P22443 1-508): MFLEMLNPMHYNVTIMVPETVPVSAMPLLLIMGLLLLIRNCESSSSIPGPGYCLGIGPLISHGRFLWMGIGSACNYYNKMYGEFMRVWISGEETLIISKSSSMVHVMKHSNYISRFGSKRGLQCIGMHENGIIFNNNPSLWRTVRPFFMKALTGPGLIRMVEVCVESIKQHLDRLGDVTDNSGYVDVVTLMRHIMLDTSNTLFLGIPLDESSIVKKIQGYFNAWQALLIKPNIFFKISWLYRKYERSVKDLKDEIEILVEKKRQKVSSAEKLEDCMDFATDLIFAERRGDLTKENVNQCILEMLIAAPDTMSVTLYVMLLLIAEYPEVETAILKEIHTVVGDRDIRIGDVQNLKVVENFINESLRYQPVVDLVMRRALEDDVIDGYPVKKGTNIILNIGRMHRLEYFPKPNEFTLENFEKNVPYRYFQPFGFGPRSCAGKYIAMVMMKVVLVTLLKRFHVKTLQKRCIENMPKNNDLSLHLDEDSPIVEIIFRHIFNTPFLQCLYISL

[4] = Toxicologic studies in female and male dogs, weekly oral dosing; format: in vivo, dog
Description: Generally, the inter-animal variability in Cmax levels was small.

[5] = Pharmacokinetics after oral administration to rats; format: in vivo, rat
Description: In one embodiment, the compound may even show an apparent elimination half-life of at least about 30 days or even at least 35 days. […] The results observed were completely unexpected in view of the previous rat experiments showing a half-life of about a week [Batzl-Hartmann et al, 1994 and Bhatnagar et al, 1996]. This surprising extremely long half-life of the compound in humans gives rise to the particular dosing scheduled of the invention.

[6] = Physicochemical properties of the crystalline compound; settings: crystalline powder
[7] = biological target: T2, human placental microsomal aromatase (Homo sapiens, UniProt P11511); settings: microsomal fraction of human placenta; Batzl-Hartmann et al, 1994; cited from earlier work
T2 construct: from tissue; host or cells: human placenta, microsomal fraction
T2 sequence (P11511 1-503): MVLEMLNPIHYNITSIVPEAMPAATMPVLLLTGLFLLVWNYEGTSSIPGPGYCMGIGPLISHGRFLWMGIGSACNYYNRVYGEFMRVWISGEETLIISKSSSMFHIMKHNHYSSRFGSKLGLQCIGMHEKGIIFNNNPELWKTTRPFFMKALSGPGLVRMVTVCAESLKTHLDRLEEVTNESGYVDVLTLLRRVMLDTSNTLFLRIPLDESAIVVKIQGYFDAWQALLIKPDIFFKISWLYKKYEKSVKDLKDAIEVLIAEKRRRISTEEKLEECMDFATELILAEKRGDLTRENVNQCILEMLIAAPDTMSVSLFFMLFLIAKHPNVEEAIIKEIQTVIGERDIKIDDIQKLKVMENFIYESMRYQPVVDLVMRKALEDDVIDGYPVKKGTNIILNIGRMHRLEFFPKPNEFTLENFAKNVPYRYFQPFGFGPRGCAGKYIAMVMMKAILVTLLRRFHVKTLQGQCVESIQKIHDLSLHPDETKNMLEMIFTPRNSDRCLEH

[8] = previous rat experiments; Batzl-Hartmann 1994, Bhatnagar 1996; cited from earlier work
[9] = Single ascending dose study in women, safety and bone density (DEXA); format: in vivo; settings: single doses 0.01 mg through 20 mg, post-menopausal women
Experimental: as §1, §2

SMILES: N#Cc1ccc(C(F)(c2ccc(C#N)cc2)n2cncn2)cc1 [CGP47645, 4,4′-[fluoro-(1-H-1,2,4-triazol-1-yl)methylene]bisbenzonitrile]
- metabolites in plasma ([1]; LSC and LC-MS): No metabolites were detected in plasma
- Kp ([1]; female, human, abdominal adipose tissue, oral, 1 mg, postmenopausal women, read-out: accumulation in fat tissue in comparison to exposure in plasma): 1 to 3
- half-life ([1]; female, human, single oral 1 mg, plasma, parent drug, read-out: terminal elimination half-life (converted)): ~672 h
- safety and tolerability ([1]; single oral 1 mg 14C-CGP47645): safe and well tolerated
- share of renally eliminated radioactivity recovered as unchanged drug ([1]; single oral 1 mg 14C-CGP47645): 16%
- share of total radioactivity excreted after 6 days that was renally eliminated ([1]; single oral 1 mg 14C-CGP47645): Approximately 84%
- absorption ([1]; single oral 1 mg, healthy postmenopausal women): fast and almost complete absorption
- duration of persistent plasma concentrations post-dose ([1]; single oral 1 mg, terminal phase): > 4000 h
- main metabolites identified in urine ([1]; three main metabolites): a carbinol derivative and two glucuronides
- estrone suppression compared with letrozole ([2]; postmenopausal women, doses of 0.1 mg and 0.3 mg, letrozole 2.5 mg): at least equal to letrozole
- inhibition of estrone, estrone sulfate and estradiol ([2]; single doses, women): dose-dependent inhibition
- effective dose achieving medical castration [3]: 3 mg/kg
- Tmax ([4]; both sexes, dog, plasma, oral, dogs, post dose): 1 to 24 h
- difference in exposure (AUC and Cmax) between male and female dogs ([4]; dogs): no consistent difference
- drug accumulation ([4]; dogs, weekly oral dosing for 4 or 22 weeks versus single dose): no drug accumulation
- increase in exposure (AUC and Cmax) versus dose ([4]; male and female dogs, single and multiple doses): generally proportional to the dose increase
- serum testosterone levels ([4]; male dogs after 1, 4 and 12 weeks of dosing): dramatically elevated testosterone levels at all dose levels
- exposure (AUC) versus dose [5]: proportional to the administered dose
- half-life ([5]; rat, in vivo, read-out: T½ (converted)): 75 h
- hygroscopicity [6]: not hygroscopic
- mode of aromatase inhibition [7]: competitive inhibitor
- half-life [8]: about a week
- minimal toxic dose (MTD) [9]: not reached
